Laboratory results as given in PMC12606608, “Identification of Novel Selective Transient Receptor Potential Vanilloid 4 (TRPV4) Agonists” (Current Pharmaceutical Design, 2025).
Entries after “also recorded” stand apart in the source; their conditions may differ. Where two headings read alike, the source gives them in different places.

Key:
mouse TRPV4 = target: T1, mouse TRPV4 (Mus musculus, UniProt Q9EPK8); test: Live-cell Fura-2 Ca2+ imaging in HEK293T cells transiently transfected with mouse TRPV4 (TRPV4-HEK293 cells); format: cell-based; settings: for Ca2+ influx in the presence of GSK219: agonist 30 nM, pre- and co-applied 100 nM GSK219; for Hill coefficient: concentration-response curve; for Ca2+ influx (F340/F380): 30 nM, 2 min
T1 construct: expressed in transfected cells; host or cells: HEK293 (ATCC CRL-1573; elsewhere called HEK293T), transient, Lipofectamine 2000
Protocol: HEK293 cells were purchased from ATCC (ATCC CRL-1573; Manassas, VA, USA). As previously reported, the cells were tested for mycoplasma contamination before being cultured in the laboratory and grown as a monolayer in Dulbecco’s modified Eagle’s medium (DMEM) (Life Technologies, Carlsbad, CA, USA), supplemented with 10% fetal bovine serum (FBS; Life Technologies), 100 units/mL penicillin, and 100 μg/mL streptomycin. The cells were maintained in a humidified incubator at 37°C under 5% CO2. The cDNAs for mouse TRPV4 (mTRPV4) were transiently transfected into HEK293 cells for at least 24 hours using Lipofectamine 2000 (Invitrogen, Waltham, MA, USA).
(§1) Fura-2-based ratiometric measurements of intracellular calcium concentration ([Ca^2+]i) were performed as previously described. HEK293T cells transiently transfected with mTRPV4, primary keratinocytes, and macrophages were loaded with 4 μM Fura-2 AM (Life Technologies) in culture medium at 37°C for 60 minutes. The cells were then washed three times and incubated in Hanks’ balanced salt solution (HBSS) at room temperature for 30 minutes before use. Fluorescence intensities were measured at excitation wavelengths of 340 nm and 380 nm using an inverted Leica fluorescence microscope equipped with excitation filter wheels (340 nm, 360 nm, and 380 nm). The data were captured using LAS X imaging software (Leica Microsystems, Wetzlar, Germany). The Fura-2 ratios (F340/F380) were used to indicate changes in intracellular calcium ion concentrations ([Ca^2+]i) in response to stimulation. These values were derived from time-lapse imaging of each coverslip. The baseline of the cells was measured in the resting state, and once the value stabilized, the cells were treated with drugs. If no significant difference in the cell baseline was observed, cell viability was considered consistent. The activation threshold was defined as three standard deviations (SDs) above the mean, which corresponds to approximately 20% above the baseline.
GSK101 and the compounds were dissolved to create a concentration gradient (0.3 nM, 3 nM, 30 nM, 100 nM, 0.3 μM, 3 μM, 30 μM, 300 μM). Live-cell calcium imaging experiments were performed using fura-2-labeled TRPV4-HEK293 cells, and the fluorescence curves were recorded for each concentration of the compounds. The experiments were repeated three times, with the number of live cells in each field of view exceeding 100. The real-time fluorescence intensity curves from each experiment were statistically analyzed to calculate the cell response rate (the percentage of cells showing a fluorescence increase greater than 20% above baseline relative to the total number of cells). The concentration-response curves were fitted using GraphPad Prism (with the logarithm of concentration on the X-axis and the response rate on the Y-axis), and the Hill coefficient and EC50 values for each compound were automatically output.
To evaluate the efficacy of these synthetic analogues in vitro, we assessed their ability to activate TRPV4 using a Ca^2+ imaging assay. Because of the low expression of TRPV4 in native cells, we utilized a heterologous expression system and conducted Ca^2+ imaging in HEK293T cells that were transiently transfected with mouse TRPV4 (TRPV4-HEK293 cells).

C57BL/6J mice [1] = test: Mechanical pain test (von Frey, intraplantar injection); format: in vivo, mouse
Protocol: (§2) Eighty adult male wild-type C57BL/6J mice and thirty TRPV4 knockout C57BL/6J mice (weighing 23-25g) were purchased from Gem Pharmatech (Nanjing, China) and maintained under a 12-hour light-dark cycle at 24°C. For all experiments, mice aged 8 to 12 weeks were utilized and acclimatized to the experimental room one week before the experiments. The mice were assigned to the experimental and control groups (5 mice/group) using a computer-generated table of random numbers (0-10), as well as the sequence of dosing and measurement. All behavioral tests were recorded from a side view, and the evaluations were carried out by observers who were unaware of the animals' treatment and genotype.
The mice were allowed to acclimate for 1.5 hours in red plastic enclosures on a metal mesh platform. The test compounds (30 μM) were formulated in 0.9% saline solution and administered via intraplantar injection with a volume of 10 μL. Calibrated von Frey filaments (0.02, 0.04, 0.07, 0.16, 0.4, 0.6, 1.0, 1.4, and 2.0 g) were applied perpendicularly to the plantar surfaces of the mice's hind paws for up to 2 seconds, with sufficient force to cause the filament to bend. Brisk withdrawal or flinching of the hind paw during or immediately after application was considered a positive response. […] The threshold force required to elicit paw withdrawal (50% mechanical threshold) was obtained using the up-down method.

[2] = target: T2, TRPV4 in primary keratinocytes (Mus musculus, UniProt Q9EPK8); test: Live-cell Ca2+ imaging in primary keratinocytes of neonatal TRPV4+/+ mice; format: cell-based; settings: for [Ca2+]i response: 0.3 μM
T2 construct: endogenous in cells; host or cells: primary keratinocytes of neonatal (P0-P2) mice
Protocol: Mice (P0-P2) were sacrificed and soaked in 10% povidone-iodine for 5 min. After being rinsed with 70% ethanol multiple times, the skin was removed and placed in a Petri dish containing PBS solution with 0.25% dispase II and incubated at 4°C overnight. The epidermis was then separated from the subcutaneous tissues, and keratinocytes were separated from the epidermis using a cell scraper and collected in 2 mL mouse keratinocyte media (Life Technologies). Dissociated cells were transferred to a 15% BSA column (1 mL) and centrifuged for 5 min at 1000 rpm. The cells were resuspended and seeded in […] Petri dishes containing 8-9 culture slides and placed in the culture incubator.
as §1, with “baseline. […]” for “baseline.”

[3] = target: T3, TRPV4 in peritoneal macrophages (Mus musculus, UniProt Q9EPK8); test: Live-cell Ca2+ imaging in freshly dissociated peritoneal macrophages from TRPV4+/+ mice; format: cell-based; settings: for [Ca2+]i response: 0.3 μM
T3 construct: endogenous in cells; host or cells: freshly dissociated murine peritoneal macrophages
Protocol: Peritoneal macrophages were isolated as previously described. The mice were euthanized by cervical dislocation, and their abdomens were dissected in the middle. Six milliliters of cold phosphate-buffered saline (PBS) was instilled into the peritoneal cavity, followed by gentle massage and subsequent aspiration. The samples were centrifuged for 5 min at 4°C and 300 g, resuspended in 2 mL PBS, and filtered using […] cell strainers. After another centrifugation, the cell suspensions were seeded in […] Petri dishes containing 8-9 culture slides and placed in a culture incubator (37°C, 5% CO2).
as §1, with “baseline. […]” for “baseline.”

C57BL/6J mice [4] = test: Acute itch test (intradermal injection into the nape, scratches in 30 min); format: in vivo, mouse; settings: 50 µL intradermal, wild-type mice
Protocol: as §2
Under 1 to 2% isoflurane anesthesia, the mice were shaved on the nape of the neck 5 to 7 days prior to the experiment. For all itch behavior experiments, the mice were acclimated in red plastic chambers for two days before measurements, with acclimation sessions lasting 2 hours on the first day and 1.5 hours on the day of measurement. GSK101 (30 μM) and the test compounds (30 μM and 300 μM) were formulated in 0.9% saline and administered via intradermal injection to the nape of the neck at a volume of 50 μL. […] Acute chemical itch was evaluated by counting the number of scratches within the 30-minute recording period.

[5] = dose-response of cell response rate, TRPV4-HEK293 cells, read-out: EC50
[6] = GSK219 1 μM pre- and co-applied

T2 sequence (Q9EPK8 whole entry): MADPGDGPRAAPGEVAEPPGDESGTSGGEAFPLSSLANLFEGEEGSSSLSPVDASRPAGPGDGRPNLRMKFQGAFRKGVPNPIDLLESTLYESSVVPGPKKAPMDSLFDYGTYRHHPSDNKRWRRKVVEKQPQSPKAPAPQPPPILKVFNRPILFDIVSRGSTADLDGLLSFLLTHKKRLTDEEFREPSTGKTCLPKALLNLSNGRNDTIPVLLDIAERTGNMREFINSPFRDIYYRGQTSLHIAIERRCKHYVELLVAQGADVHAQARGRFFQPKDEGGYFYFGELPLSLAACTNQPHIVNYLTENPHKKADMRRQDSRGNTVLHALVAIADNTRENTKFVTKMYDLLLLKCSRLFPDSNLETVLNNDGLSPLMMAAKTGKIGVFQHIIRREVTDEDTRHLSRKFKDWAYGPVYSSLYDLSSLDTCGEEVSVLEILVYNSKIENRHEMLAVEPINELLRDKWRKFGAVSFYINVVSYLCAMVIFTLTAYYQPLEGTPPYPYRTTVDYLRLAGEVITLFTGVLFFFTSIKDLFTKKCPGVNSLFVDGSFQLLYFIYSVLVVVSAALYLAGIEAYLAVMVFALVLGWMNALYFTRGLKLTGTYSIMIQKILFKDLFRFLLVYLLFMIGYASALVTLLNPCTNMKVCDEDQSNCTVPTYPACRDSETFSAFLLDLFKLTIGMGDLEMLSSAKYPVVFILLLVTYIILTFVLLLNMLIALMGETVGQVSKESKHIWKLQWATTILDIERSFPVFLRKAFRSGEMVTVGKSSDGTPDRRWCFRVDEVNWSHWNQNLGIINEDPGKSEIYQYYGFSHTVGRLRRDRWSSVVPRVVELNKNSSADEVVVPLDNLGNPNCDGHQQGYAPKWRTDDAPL
T1 sequence (Q9EPK8 whole entry): as above
T3 sequence (Q9EPK8 whole entry): as above

Ca2+ influx in the presence of GSK219 (mouse TRPV4) | Hill coefficient (mouse TRPV4; TRPV4-HEK293 cells) | EC50 (mouse TRPV4; [5]) [µM] | Ca2+ influx (F340/F380) (mouse TRPV4; TRPV4-HEK293 cells) | Structure (SMILES) | other results
abolished | 0.3283 | 78.9 |  | CC(C)CC(NC(=O)c1cc2ccccc2s1)C(=O)N1CC2(C1)CN(C(=O)C(CO)NS(=O)(=O)c1ccccc1Cl)C2 (stereo not drawn) [LM6146] | Immediate pain-inducing effect compared with GSK101 (C57BL/6J mice [1]; 30 µM intraplantar, 0 h, wild-type mice): slightly weaker than that of GSK101; Pain-inducing effect one hour post-injection compared with GSK101 (C57BL/6J mice [1]; 30 µM intraplantar, 1 h, wild-type mice): reached a level comparable to GSK101
 |  |  | no measurable current | CC(C)CC(NC(=O)c1cc2ccccc2s1)C(=O)N1CC2(C1)CN(C(=O)C(CO)NS(=O)(=O)c1ccc(Cl)cc1)C2 (stereo not drawn) [LM6140] | 
 |  |  | no measurable current | CC(C)CC(NC(=O)c1cc2ccccc2s1)C(=O)N1CC2(C1)CN(C(=O)C(CO)NS(=O)(=O)c1cccc(Cl)c1)C2 (stereo not drawn) [LM6142] | 
 |  |  | no measurable current | CC(C)CC(NC(=O)c1cc2ccccc2s1)C(=O)N1CCN(C(=O)C(CO)NC(=O)c2ccc(Cl)cc2)CC1 (stereo not drawn) [LM0025] | 

Further lines, the molecule ahead of its results:

Structure (SMILES) | Ca2+ influx in the presence of GSK219 (mouse TRPV4) | Hill coefficient (mouse TRPV4; TRPV4-HEK293 cells) | EC50 (mouse TRPV4; [5]) [µM] | Ca2+ influx (F340/F380) (mouse TRPV4; TRPV4-HEK293 cells) | other results
CC(C)CC(NC(=O)c1cc2ccccc2s1)C(=O)N1CC2COCC(C1)N2C(=O)C(CO)NS(=O)(=O)c1ccc(Cl)cc1Cl (stereo not drawn) [GM1009] | abolished | 0.2998 | 85.6 |  | 
CC(C)C[C@H](NC(=O)c1cc2ccccc2s1)C(=O)N1CC2CCC(C1)N2C(=O)C(CO)NS(=O)(=O)c1ccc(Cl)cc1Cl (stereo partly drawn) [GM1004] | abolished | 1.1650 | 11.5 |  | 
CC(C)CC(NC(=O)c1cc2ccccc2s1)C(=O)N1CCCN(C(=O)C(CO)NS(=O)(=O)c2ccc(Cl)cc2Cl)CC1 (stereo not drawn) [LM0038] | abolished | 1.0280 | 0.168 |  | [Ca2+]i response [2]: induced a significant TRPV4-mediated calcium response; also recorded: weaker calcium influx than before; [Ca2+]i response [3]: induced a significant TRPV4-mediated calcium response; also recorded: signals with lower peaks than before
CC(C)C[C@H](NC(=O)c1cc2ccccc2s1)C(=O)N1CCN(C(=O)[C@H](CO)NS(=O)(=O)c2ccc(Cl)cc2Cl)CC1 [GSK101, N-((1S)-1-{[4-((2S)-2-{[(2,4-dichlorophenyl)sulfonyl]amino}-3-hydroxypropanoyl)-1-piperazinyl]carbonyl}-3-methylbutyl)-1-benzothiophene-2-carboxamide, reference compound] | abolished | 0.9273 |  | produced a Ca^2+ influx of different strengths | Number of scratching bouts within 30 minutes (average) (C57BL/6J mice [4]; 30 μM): 50; Number of scratches within 30 minutes (average) (C57BL/6J mice [4]; 300 µM): 88; [Ca2+]i response [2]: induced a significant TRPV4-mediated calcium response; [Ca2+]i response [3]: induced a significant TRPV4-mediated calcium response; EC50 (mouse TRPV4): 0.0137 µM; Mechanical hyperalgesia (paw withdrawal) vs control group (C57BL/6J mice [1]; 30 µM, 10 µL intraplantar, wild-type mice): significantly induced mechanical hyperalgesia
CC(C)CC(NC(=O)c1cc2ccccc2s1)C(=O)N1CCN(C(=O)C(CO)NC(=O)c2ccc(Cl)cc2Cl)CC1 (stereo not drawn) [LM0024] | abolished | 0.7036 | 20 |  | 
CC(C)CC(NC(=O)c1cc2ccccc2s1)C(=O)N1CC2(C1)CN(C(=O)C(CO)NS(=O)(=O)c1ccccc1)C2 (stereo not drawn) [LM6147] | abolished | 1.1150 | 6.08 |  | 
O=C(NC1(c2ccccc2)CC1)c1c(CN2CCC(N3CCCCC3)CC2)c(-c2cccc(C(F)(F)F)c2)nc2cc(Br)ccc12 [GSK219, reference compound] |  |  |  |  | Inhibition of agonist-elicited [Ca2+]i response [2, 6]: abolished the GSK101 action; Inhibition of agonist-elicited [Ca2+]i response [3, 6]: abolished the GSK101 action; Inhibition of agonist-induced Ca2+ influx (mouse TRPV4; 100 nM GSK219 pre- and co-applied, TRPV4-HEK293 cells): abolished the action of GSK101 and compounds; Block of compound-induced pain-like behavior (C57BL/6J mice [1]; GSK219 intraperitoneally 30 minutes before plantar injection of compounds (30 µM)): blocked the pain-like behavior induced by GSK101 derivatives
C[C@H](CCC(=O)O)C[C@H](C)C[C@H](C)C(=O)/C=C(\O)[C@H](C)C[C@H](C)C/C=C/[C@@H](C)[C@@H](O)[C@@H](C)[C@@H](O)C[C@@H]1CC[C@@](C)([C@H]2CC[C@@](C)([C@@H](C)O)O2)O1 [ionomycin, reference compound] |  |  |  |  | Intracellular calcium concentration (positive control) (mouse TRPV4; 1 μM ionomycin, TRPV4-HEK293 cells): rapidly and significantly increased intracellular calcium concentration
